Source: ChEMBL document CHEMBL5244277, “A review upon medicinal perspective and designing rationale of DPP-4 inhibitors” (Bioorg Med Chem, 2021)
One block for each compound: values may come before it.

Columns and labels:
Mus musculus [1] = assay: Hypoglycemic activity in KKAy mouse assessed as reduction in blood glucose level at 30 mg/kg; assay type: ADME, organism-based; set-up: scale not given: the % may be the effect or the level left; details: in vivo
Mus musculus [2] = assay: Hypoglycemic activity in KKAy mouse assessed as reduction in blood glucose level at 3 mg/kg; assay type: ADME, organism-based; set-up: scale not given: the % may be the effect or the level left; details: in vivo
[3] = Aqueous stability in phosphate buffer at pH 7.4 assessed as half life; assay type: physicochemical
Mus musculus [4] = assay: Hypoglycemic activity in ICR mouse assessed as reduction in blood glucose level at 30 mg/kg measured at 120 mins; assay type: ADME, organism-based; set-up: scale not given: the % may be the effect or the level left; details: in vivo, 2 h
Dipeptidyl peptidase 4 [5] = biological target: T1, Dipeptidyl peptidase 4 (Homo sapiens, UniProt P27487); assay: Inhibition of human recombinant DPP-4 using H-Gly-Pro-aminomethylcoumarin as substrate
Target sequence in this assay (P27487 whole entry): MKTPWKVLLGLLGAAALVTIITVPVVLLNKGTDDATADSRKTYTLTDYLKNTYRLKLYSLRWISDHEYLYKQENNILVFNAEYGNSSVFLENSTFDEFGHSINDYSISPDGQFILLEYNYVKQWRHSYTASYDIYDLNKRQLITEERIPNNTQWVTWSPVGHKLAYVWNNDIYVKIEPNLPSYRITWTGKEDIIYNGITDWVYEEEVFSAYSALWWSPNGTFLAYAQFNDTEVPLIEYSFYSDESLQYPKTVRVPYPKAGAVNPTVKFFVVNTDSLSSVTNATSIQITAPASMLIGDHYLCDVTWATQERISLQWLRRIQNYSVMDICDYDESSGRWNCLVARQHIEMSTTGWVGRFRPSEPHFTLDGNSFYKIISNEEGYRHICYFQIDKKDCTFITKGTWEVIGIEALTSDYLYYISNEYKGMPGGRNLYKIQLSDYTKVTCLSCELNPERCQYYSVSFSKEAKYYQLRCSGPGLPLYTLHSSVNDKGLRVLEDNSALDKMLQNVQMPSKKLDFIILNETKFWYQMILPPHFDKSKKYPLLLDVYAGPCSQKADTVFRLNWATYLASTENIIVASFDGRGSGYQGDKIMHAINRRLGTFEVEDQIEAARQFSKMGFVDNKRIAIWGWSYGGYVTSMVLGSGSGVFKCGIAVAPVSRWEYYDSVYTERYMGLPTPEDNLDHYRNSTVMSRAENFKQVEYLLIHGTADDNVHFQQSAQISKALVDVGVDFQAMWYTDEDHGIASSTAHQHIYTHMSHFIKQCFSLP

Homo sapiens [6] = organism: Homo sapiens; assay: Selectivity index, ratio of IC50 for human recombinant DPP-4 to IC50 for human recombinant DPP-8
Homo sapiens [7] = organism: Homo sapiens; assay: Selectivity index, ratio of IC50 for human recombinant DPP-4 to IC50 for human recombinant DPP-9
Mus musculus [8] = assay: Hypoglycemic activity in ICR mouse assessed as reduction in blood glucose level at 3 mg/kg measured at 120 mins; assay type: ADME, organism-based; set-up: scale not given: the % may be the effect or the level left; details: in vivo, 2 h
Dipeptidyl peptidase 4 [9] = biological target: T1, Dipeptidyl peptidase 4; assay: Inhibition of human recombinant DPP-4 using H-Gly-Pro-aminomethylcoumarin as substrate at 100 uM relative to control
Target sequence in this assay (P27487 whole entry, looked up): as the sequence (P27487 whole entry) above

[10] = Biovailability in mouse at 3 to 10 mg/kg, iv; assay type: ADME, organism-based; details: in vivo, dose 3-10 mg/kg
Dipeptidyl peptidase 9 = Dipeptidyl peptidase 9 (Homo sapiens, UniProt Q86TI2); assay: Inhibition of human recombinant DPP-9
[11] = Half life in mouse at 3 to 10 mg/kg, iv; assay type: ADME, organism-based; details: in vivo, dose 3-10 mg/kg
[12] = Clearance in mouse at 3 to 10 mg/kg, iv; assay type: ADME, organism-based; details: in vivo, dose 3-10 mg/kg
[13] = Cytotoxicity against human L02 cells assessed as cell viability after 72 hrs by MTT assay; assay type: toxicity, cell-based; details: read-out: Activity
Dipeptidyl peptidase 8 = Dipeptidyl peptidase 8 (Homo sapiens, UniProt Q6V1X1); assay: Inhibition of human recombinant DPP-8
[14] = Metabolic stability in rat plasma assessed as parent compound remaining; assay type: ADME, cell-free
[15] = Metabolic stability in rat liver microsome assessed as parent compound remaining; assay type: ADME; details: microsomes
Mus musculus [16] = assay: Hypoglycemic activity in mouse assessed as reduction in blood glucose level at 10 mg/kg measured after 120 mins; assay type: ADME, organism-based; set-up: scale not given: the % may be the effect or the level left; details: in vivo, 2 h
[17] = Half life in Sprague-Dawley rat at 3 mg/kg, po; assay type: ADME, organism-based; details: in vivo
Dipeptidyl peptidase 4 [18] = biological target: T1, Dipeptidyl peptidase 4
Target sequence in this assay (P27487 whole entry): as above

[19] = Bioavailability in rat; assay type: ADME, organism-based; details: in vivo
[20] = Bioavailability in monkey; assay type: ADME, organism-based, Macaca mulatta; details: rhesus monkey, in vivo
[21] = Bioavailability in dog; assay type: ADME, organism-based, Canis lupus familiaris; details: in vivo
Mus musculus [22] = assay: Hypoglycemic activity in ICR mouse assessed as reduction in blood glucose level at 10 mg/kg; assay type: ADME, organism-based; set-up: scale not given: the % may be the effect or the level left; details: in vivo
Mus musculus [23] = assay: Hypoglycemic activity in ICR mouse assessed as reduction in blood glucose level at 3 mg/kg; assay type: ADME, organism-based; set-up: scale not given: the % may be the effect or the level left; details: in vivo
[24] = Half life in KKAy mouse at 10 to 30 mg/kg; assay type: ADME, organism-based; details: in vivo, dose 10-30 mg/kg
[25] = Oral bioavailability in KKAy mouse at 10 to 30 mg/kg; assay type: ADME, organism-based; details: in vivo, dose 10-30 mg/kg
Mus musculus [26] = assay: Hypoglycemic activity in ICR mouse assessed as reduction in blood glucose level at 30 mg/kg; assay type: ADME, organism-based; set-up: scale not given: the % may be the effect or the level left; details: in vivo
Mus musculus [27] = assay: Hypoglycemic activity in ICR mouse assessed as reduction in blood glucose level at 1 mg/kg; assay type: ADME, organism-based; set-up: scale not given: the % may be the effect or the level left; details: in vivo
Mus musculus [28] = assay: Hypoglycemic activity in KKAy mouse assessed as reduction in blood glucose level at 10 mg/kg; assay type: ADME, organism-based; set-up: scale not given: the % may be the effect or the level left; details: in vivo
Rattus norvegicus [29] = assay: Antihyperglycemic activity in STZ-induced diabetic rat model assessed as reduction in blood glucose level at 100 mg/kg, po measured upto 24 hrs; assay type: functional; set-up: scale not given: the % may be the effect or the level left
Mus musculus [30] = assay: Antidiabetic activity in C57BL/6J mouse assessed as decrease in AUC of glucose at 3 mg/kg, po; assay type: functional; set-up: scale not given: the % may be the effect or the level left
Mus musculus [31] = assay: Hypoglycemic activity in C57BL/6J mouse assessed as reduction in blood glucose level at 3 mg/kg, iv measured for 180 mins; assay type: ADME, organism-based; set-up: scale not given: the % may be the effect or the level left; details: in vivo, 3 h
Dipeptidyl peptidase 4 [32] = biological target: T1, Dipeptidyl peptidase 4; assay: Inhibition of DPP-4 (unknown origin) using (H-Gly-Pro-AMC) as substrate
Target sequence in this assay (P27487 whole entry): as above

[33] = Metabolic stability in human liver microsomes assessed as intrinsic clearance; assay type: ADME, Microsome; details: read-out: CLH
[34] = Cmax in ICR mouse at 1 to 10 mg/kg, po; assay type: ADME, organism-based; set-up: route po; details: in vivo, dose 1-10 mg/kg
[35] = Tmax in ICR mouse at 1 to 10 mg/kg, po; assay type: ADME, organism-based; details: in vivo, dose 1-10 mg/kg
[36] = MRT in ICR mouse at 1 to 10 mg/kg, po; assay type: ADME, organism-based; details: in vivo, dose 1-10 mg/kg
[37] = Half life in ICR mouse at 1 to 10 mg/kg, po; assay type: ADME, organism-based; details: in vivo, dose 1-10 mg/kg
Homo sapiens [38] = organism: Homo sapiens; assay: Selectivity index, ratio of IC50 for DPP-8 (unknown origin) to IC50 for DPP-4 (unknown origin)
Mus musculus [39] = assay: Hypoglycemic activity in C57BL/6J mouse assessed as reduction in blood glucose level at 20 mg/kg, iv measured for 180 mins; assay type: ADME, organism-based; set-up: scale not given: the % may be the effect or the level left; details: in vivo, 3 h
Mus musculus [40] = assay: Hypoglycemic activity in C57BL/6J mouse assessed as reduction in blood glucose level at 10 mg/kg, iv measured for 180 mins; assay type: ADME, organism-based; set-up: scale not given: the % may be the effect or the level left; details: in vivo, 3 h
Mus musculus [41] = assay: Hypoglycemic activity in C57BL/6J mouse assessed as reduction in blood glucose level at 5 mg/kg, iv measured for 180 mins; assay type: ADME, organism-based; set-up: scale not given: the % may be the effect or the level left; details: in vivo, 3 h
Homo sapiens [42] = organism: Homo sapiens; assay: Selectivity index, ratio of IC50 for DPP-9 (unknown origin) to IC50 for DPP-4 (unknown origin)
Rattus norvegicus [43] = assay: Anti-hyperglycemic activity in STZ-induced diabetic rat model assessed as improvement in glucose tolerance level at 30 mg/kg, po measured on day 15; assay type: functional
Rattus norvegicus [44] = assay: Anti-hyperglycemic activity in STZ-induced diabetic rat model assessed as improvement in glucose tolerance level at 30 mg/kg, po measured on day 10; assay type: functional; details: time 10 day
Dipeptidyl peptidase 4 [45] = biological target: T1, Dipeptidyl peptidase 4; assay: Inhibition of human recombinant DPP-4 at 25 uM using Gly-Pro-Aminomethylcoumarin as substrate by Spectra max fluorometer analysis relative to control
Target sequence in this assay (P27487 whole entry, looked up): as the sequence (P27487 whole entry) above

Chain of Dipeptidyl peptidase 9 (Q86TI2 whole entry): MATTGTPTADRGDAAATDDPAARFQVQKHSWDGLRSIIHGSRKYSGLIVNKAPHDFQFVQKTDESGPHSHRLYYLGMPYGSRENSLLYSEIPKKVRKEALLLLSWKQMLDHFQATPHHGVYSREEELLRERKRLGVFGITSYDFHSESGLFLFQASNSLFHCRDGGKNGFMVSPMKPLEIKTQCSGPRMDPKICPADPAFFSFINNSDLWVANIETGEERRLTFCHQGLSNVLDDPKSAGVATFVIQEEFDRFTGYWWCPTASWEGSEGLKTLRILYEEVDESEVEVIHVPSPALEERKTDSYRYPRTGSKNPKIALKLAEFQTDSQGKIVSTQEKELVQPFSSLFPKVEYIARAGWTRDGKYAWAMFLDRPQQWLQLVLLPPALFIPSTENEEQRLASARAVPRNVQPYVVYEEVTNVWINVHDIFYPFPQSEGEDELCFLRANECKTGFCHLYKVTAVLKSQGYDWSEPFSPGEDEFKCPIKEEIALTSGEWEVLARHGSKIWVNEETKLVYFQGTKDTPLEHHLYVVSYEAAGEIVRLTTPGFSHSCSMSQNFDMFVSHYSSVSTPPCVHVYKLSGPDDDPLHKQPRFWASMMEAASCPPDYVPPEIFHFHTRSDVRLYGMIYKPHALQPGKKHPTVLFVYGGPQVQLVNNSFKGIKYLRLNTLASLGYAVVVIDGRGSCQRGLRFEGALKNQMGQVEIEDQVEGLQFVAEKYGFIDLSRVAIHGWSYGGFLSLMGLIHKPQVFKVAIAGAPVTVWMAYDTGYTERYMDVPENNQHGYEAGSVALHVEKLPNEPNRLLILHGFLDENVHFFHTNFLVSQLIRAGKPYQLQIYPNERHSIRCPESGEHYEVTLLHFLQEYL
Chain of Dipeptidyl peptidase 8 (Q6V1X1 whole entry): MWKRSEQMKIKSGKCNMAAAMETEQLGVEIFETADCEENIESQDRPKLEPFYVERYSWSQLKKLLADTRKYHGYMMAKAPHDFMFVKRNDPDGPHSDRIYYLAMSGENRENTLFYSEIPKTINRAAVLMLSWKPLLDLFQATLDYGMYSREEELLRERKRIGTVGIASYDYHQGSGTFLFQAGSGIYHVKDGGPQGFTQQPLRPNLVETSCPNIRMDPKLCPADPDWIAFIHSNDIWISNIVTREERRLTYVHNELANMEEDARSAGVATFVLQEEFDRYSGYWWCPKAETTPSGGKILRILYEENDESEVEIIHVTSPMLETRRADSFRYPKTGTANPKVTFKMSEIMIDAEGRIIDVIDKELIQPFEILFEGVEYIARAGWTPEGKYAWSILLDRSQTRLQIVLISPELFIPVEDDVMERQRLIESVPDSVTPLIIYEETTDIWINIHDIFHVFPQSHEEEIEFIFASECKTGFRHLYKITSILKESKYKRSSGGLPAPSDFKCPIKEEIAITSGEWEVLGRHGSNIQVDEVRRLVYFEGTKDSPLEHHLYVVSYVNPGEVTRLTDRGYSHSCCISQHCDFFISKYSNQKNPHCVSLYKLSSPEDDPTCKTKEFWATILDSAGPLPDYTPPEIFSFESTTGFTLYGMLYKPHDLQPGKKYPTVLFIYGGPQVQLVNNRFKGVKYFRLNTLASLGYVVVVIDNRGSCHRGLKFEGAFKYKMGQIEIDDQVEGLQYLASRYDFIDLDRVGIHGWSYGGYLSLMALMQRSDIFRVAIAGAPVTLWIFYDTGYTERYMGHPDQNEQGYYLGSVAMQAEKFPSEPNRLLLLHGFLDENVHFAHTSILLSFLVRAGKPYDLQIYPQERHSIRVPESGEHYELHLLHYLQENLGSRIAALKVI

SMILES: N#C[C@@H]1CCCN1C(=O)CNC1C[C@H]2CC(O)C[C@H]2C1 (stereo not given in full)
Activity (Mus musculus [1]): 52.2% | Activity (Mus musculus [2]): 61.9%

SMILES: CO[C@@H]1CCCN1C(=O)CC(C)(C)[C@H](N)C(=O)N1CCC[C@H]1C#N.O=C(O)C(F)(F)F
half-life [3]: 168 h

SMILES: NCc1c(-c2ccc(Cl)cc2Cl)nc2ccccn12
Activity (Mus musculus [4]): 33.53% | IC50 (Dipeptidyl peptidase 4 [5]): 130 nM | Ratio IC50 (Homo sapiens [6]): 215 | Ratio IC50 (Homo sapiens [7]): 192 | Activity (Mus musculus [8]): 35% | inhibition (Dipeptidyl peptidase 4 [9]): 75%

SMILES: CC1c2nnc(C(F)(F)F)n2CCN1C(=O)C[C@H](N)Cc1cc(F)c(F)cc1F.Cl (stereo not given in full)
IC50 (Dipeptidyl peptidase 4 [18]): 4.3 nM | bioavailability [19]: 57% | bioavailability [20]: 87% | bioavailability [21]: 91%

SMILES: N#C[C@@H]1C[C@H](F)CN1C(=O)[C@@H](N)Cc1ccccc1
Activity (Mus musculus [1]): 26.4% | Activity (Mus musculus [22]): 29.13% | Activity (Mus musculus [23]): 27.36% | half-life [24]: 5.4 h | bioavailability [25]: 21.8% | Activity (Mus musculus [26]): 27.57% | Activity (Mus musculus [27]): 18.75% | Activity (Mus musculus [28]): 19.2%

SMILES: N[C@@H](CC(=O)N1CCn2c(nnc2C(F)(F)F)C1)Cc1cc(F)c(F)cc1F [SITAGLIPTIN]
Activity (Rattus norvegicus [29]): 31.9% | Activity (Mus musculus [30]): 17.9% | Activity (Mus musculus [31]): 27.8%

SMILES: Cc1ccc2cc(CNc3nc(C)cs3)n(/N=C/c3ccc(O)cc3)c(=O)c2c1
IC50 (Dipeptidyl peptidase 4 [32]): 1.12 nM

SMILES: O=C(CN1CCN(c2cccc(Cl)c2)CC1)N1CCCCC1
Activity (Rattus norvegicus [43]): 19.4% | Activity (Rattus norvegicus [44]): 11.8% | Activity (Rattus norvegicus [29]): 24.6%

Second part, led by results:

bioavailability [10]: 27.3% | IC50 (Dipeptidyl peptidase 9): > 100000 nM | half-life [11]: 11.1 h | clearance [12]: 5.83 mL/min/kg | IC50 (Dipeptidyl peptidase 8): > 100000 nM | Stability [14]: 99.38% | Stability [15]: 101.83% | Activity (Mus musculus [16]): 16.4%
SMILES: CC#CCn1c(N2CCC[C@@H](N)C2)cc(=O)n(Cc2ccc(Cl)c(C(=O)N(C)C)c2)c1=O
viability at 72 h [13]: 100%

half-life [17]: 0.92 h
SMILES: N#C[C@@H]1C[C@H]2[C@H](CC2(F)F)N1C(=O)[C@@H](N)C12CC3CC(CC(O)(C3)C1)C2

CLint scaled [33]: < 100 mL/min/kg | Cmax [34]: 719 ng/mL | Tmax [35]: 2 h | MRT [36]: 2.72 h | half-life [37]: 1.03 h
SMILES: N[C@@H](CCNC(=O)N1CCn2c(nnc2C(F)(F)F)C1)Cc1cc(F)c(F)cc1F

IC50 (Dipeptidyl peptidase 4 [18]): 28500 nM | Ratio IC50 (Homo sapiens [38]): 8 | Activity (Mus musculus [39]): 47.1% | Activity (Mus musculus [40]): 33.6% | Activity (Mus musculus [41]): 19.6% | Ratio IC50 (Homo sapiens [42]): 8
SMILES: Brc1nc2n(n1)CC(c1cc3ccccc3o1)=NN2

inhibition (Dipeptidyl peptidase 4 [45]): 52.9%
SMILES: Cc1cc(=O)oc2cc(NC(=O)CN3CCNCC3)ccc12
